Assay results taken from patent US10799522B2, “Compositions and methods relating to galectin detection” (Wayne State University, priority 2015, dated 2020).
“Also recorded” adds a separate entry of the source.

Tests used:
[1] = test system: orthotopic human breast carcinoma xenograft (MCF10DCIS); test: dynamic PET/CT imaging, pharmacokinetics and biodistribution in tumor-bearing mice; type: in vivo, immunedeficient nu/nu mice
Procedure: A single (unilateral) orthotopic breast carcinoma xenograft was established in immunedeficient nu/nu mice by injection of human breast ductal carcinoma in situ cells (MCF10DCIS) in Matrigel into one of the upper mammary fat pad.
Tumor-bearing mice (˜20-25 g) were anesthetized using inhalation of 2% isoflurane in oxygen, and their body temperature maintained at 38° C. by a heating pad with a feedback temperature control. […] Dynamic PET images were acquired in list-mode and reconstructed using OSEM algorithm at multiple time frames post radiotracer administration (0-2, 2-4, 4-6, 6-8, 8-10, 10-20, 20-30, 30-40, 40-50, 50-60 min). Thereafter, while still fixed to the positioning bed, the mice were moved with the bed into the gantry of INVEON SPECT/CT (Siemens), and CT images were acquired over the whole body area for attenuation correction of PET images and for production of PET/CT images. PET/CT fusion images were generated and analyzed in a similar manner as when studying rats.

[2] = dynamic PET/CT imaging, pharmacokinetics and biodistribution in a normal rat; type: in vivo, Sprague-Dawley rats
Procedure: Sprague-Dawley rats (males, ˜250 g) were anesthetized using inhalation of 2% isoflurane in oxygen, and their body temperature maintained at 37° C. by a heating pad with a feedback temperature control. […] Dynamic PET images were acquired in the list-mode and reconstructed using OSEM algorithm at multiple time frames post radiotracer administration (0-2, 2-4, 4-6, 6-8, 8-10, 10-20, 20-30, 30-40, 40-50, 50-60 min), followed by a whole body image that has been acquired using 3 consecutive bed positions, 5 min/bed position. Thereafter, while still fixed to the positioning bed, the rats were moved with the bed into the gantry of the INVEON SPECT/CT (Siemens) and CT images were acquired over the whole body area for attenuation correction of PET images and for production of PET/CT images. PET/CT fusion images were generated and analyzed using the AMIDE software version 1.0.4. […] The data was analyzed using GraphPad Prism version 6 (GraphPad Prism, Inc.) and pharmacokinetic parameters of clearance were calculated by fitting the resultant time-activity curves with exponential or bi-exponential functions.

[3] = tumor-bearing mice, i.v., bi-exponential clearance from the blood
[4] = tumor-bearing mice, mono-exponential kinetics
[5] = rats, i.v., bi-exponential clearance from the blood
[6] = rats, i.v., mono-exponential kinetics

SMILES: OCC1OC(SC2OC(CO)C(O)C(n3cc(-c4cccc([18F])c4)nn3)C2O)C(O)C(n2cc(-c3cccc(F)c3)nn2)C1O [[^18F]FPTDG, 3-(3-[^18F]fluorophenyltriazolyl)-3-deoxy-3′-(3-fluorophenyltriazolyl)-3′-deoxy-1-thio-β-D-digalactopyranoside]
- retention in MCF10DCIS xenografts ([1]; 20 to 60 min post i.v. injection): significant retention
- accumulation of radioactivity in normal mammary fat pads ([1]; mice, PET/CT): no accumulation of radioactivity was detectable
- accumulation or retention of radioactivity in the lungs, muscles, and other organs and tissues ([1]; mice, i.v.): extremely low
- crossing of the blood-brain barrier (radioactivity in the brain) ([1]; mice, i.v.): does not cross the blood-brain barrier (BBB) in mice either
- magnitude of catabolism ([1]; mice, bone accumulation at 60 min post injection): negligible
- increased binding and accumulation in MCF10DCIS, as compared to normal breast tissue and muscle (Logan graphical analysis) ([1]; mice, muscle as reference tissue): 2-3 fold
- renal clearance ([1]; mice, radioactivity in the bladder): more active in mice, as compared with rats
- route of excretion ([1]; tumor-bearing mice, i.v.): predominantly via the hepatobiliary route of excretion
- blood fast clearance half-time [1, 3]: ~0.5 min
- blood slow clearance half-time [1, 3]: ~10.5 min
- kidney clearance half-time [1, 4]: 37 min
- liver clearance half-time [1, 4]: ~120 min
- defluorination ([2]; [^18F]-fluoride radioactivity accumulation in the bone): Minimal, but detectable
- radioactivity levels in all major organs and tissues, including the liver and gall bladder ([2]; after 75 min post intravenous administration): very low
- primary radiation dose-limiting organs ([2]; based on dynamic PET/CT imaging results): liver and gall bladder; also recorded: liver and gallbladder
- pharmacologic toxicity ([2]; radiotracer doses): No pharmacologic toxicity can be anticipated or actually observed; also recorded: No acute pharmacologic toxicity at radiotracer doses has been observed
- accumulation or retention of radioactivity in the lungs, muscles, and other organs and tissues ([2]; rats, i.v.): extremely low; also recorded: No substantial uptake or retention
- crossing of the blood-brain barrier (radioactivity in the brain) ([2]; rats, i.v.): does not cross the blood-brain barrier (BBB)
- route of excretion ([2]; rats, i.v.): predominantly via the hepatobiliary route of excretion; also recorded: primarily excreted via the hepatobiliary route
- blood fast clearance half-time [2, 5]: 0.5 min
- blood slow clearance half-time [2, 5]: 7.36 min
- kidney clearance half-time [2, 6]: 68 min
- liver clearance half-time [2, 6]: 53 min
- renal clearance ([2]; rats, i.v., radioactivity in the bladder): insignificant
- magnitude of catabolism ([2]; rats, bone accumulation at 60-75 min post injection): negligible
